Measured values from patent publication US8431593B2, “Heteroaryl amide derivatives” (H. Lundbeck A/S, priority 2006, dated 2013).
pIC50: −log10 of the molar value.

Each compound was assayed against T1, P2X7 receptor (Homo sapiens, UniProt Q99572) (assay: P2X7 calcium mobilization assay, high throughput, antagonist activity (Example 4A)). Settings: 50% decrease in the fluorescence response of cells exposed to 80 μM of 2′(3′)-O-(4-benzoyl-benzoyl)adenosine 5′-triphosphate; determined as in Example 4A; read-out: IC50.
T1 construct: host or cells: SH-SY5Y
T1 sequence (Q99572 1-595): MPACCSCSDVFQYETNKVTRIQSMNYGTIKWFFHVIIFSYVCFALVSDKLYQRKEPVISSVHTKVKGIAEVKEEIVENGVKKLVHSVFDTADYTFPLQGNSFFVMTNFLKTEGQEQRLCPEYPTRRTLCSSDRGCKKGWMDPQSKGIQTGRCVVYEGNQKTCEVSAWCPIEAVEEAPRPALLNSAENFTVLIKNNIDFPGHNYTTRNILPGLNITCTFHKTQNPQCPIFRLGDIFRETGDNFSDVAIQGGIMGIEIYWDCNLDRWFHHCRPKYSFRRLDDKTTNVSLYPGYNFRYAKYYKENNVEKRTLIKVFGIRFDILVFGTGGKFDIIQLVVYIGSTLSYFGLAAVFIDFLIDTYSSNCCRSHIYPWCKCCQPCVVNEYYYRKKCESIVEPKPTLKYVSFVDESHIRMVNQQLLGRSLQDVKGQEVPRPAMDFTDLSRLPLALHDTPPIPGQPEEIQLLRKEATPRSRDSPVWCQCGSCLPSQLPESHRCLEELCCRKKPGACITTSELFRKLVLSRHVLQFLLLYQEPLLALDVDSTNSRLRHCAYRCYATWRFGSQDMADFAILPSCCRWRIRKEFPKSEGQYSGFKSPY
Type: cell-based
How it was run: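 Dye-loaded cells (100,000/well, seeded previous day) are pre-exposed to compound for an hour at room temperature. Fluorescence maxima are baseline-corrected against no-agonist wells and compared with the averaged agonist-well maximum.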

pIC50 | SMILES
> 5.70 | O=C(O)Cc1cn2c(C(=O)NCC3(c4ccc(Cl)cc4)CCCCC3)cccc2n1 [Compound 949, [5-({[1-(4-chlorophenyl)cyclohexyl]methyl}carbamoyl)imidazo[1,2-a]pyridin-2-yl]acetic acid]
> 5.70 | COc1ccc(C2(CNC(=O)c3cccc4nc(CC(=O)N[C@@H]5CCN(C(=O)OC(C)(C)C)C5)cn34)CCCCC2)cc1 [Compound 950, tert-butyl (3R)-3-({[5-({[1-(4-methoxyphenyl)cyclohexyl]methyl}carbamoyl)imidazo [1,2-a]pyridin-2-yl]acetyl}amino) pyrrolidine-1-carboxylate]
> 5.70 | CCCC(CNC(=O)c1cccc2nc(CC(=O)N[C@@H]3CCNC3)cn12)c1ccc(Cl)cc1 (stereo partly drawn) [Compound 951, N-[2-(4-chlorophenyl)pentyl]-2-{2-oxo-2-[(3R)-pyrrolidin-3-ylamino]ethyl} imidazo[1,2-a] pyridine-5-carboxamide]
> 5.70 | COc1ccc(C2(CNC(=O)c3cccc4nc(CC(=O)N[C@@H]5CCNC5)cn34)CCCCC2)cc1 [Compound 952, N-{[1-(4-methoxyphenyl)cyclohexyl]methyl}-2-{2-oxo-2-[(3R)-pyrrolidin-3-ylamino]ethyl}imidazo[1,2-a]pyridine-5-carboxamide]
> 5.70 | NC(=O)c1cccc(NC(=O)Cc2cn3c(C(=O)NCC4CCCCCC4)cccc3n2)c1 [Compound 955, 2-{2-[(3-carbamoylphenyl)amino]-2-oxoethyl}-N-(cycloheptylmethyl) imidazo[1,2-a] pyridine-5-carboxamide]
> 5.70 | CNC(=O)c1ccc(NC(=O)Cc2cn3c(C(=O)NCC4CCCCCC4)cccc3n2)cc1 [Compound 957, N-(cycloheptylmethyl)-2-(2-{[4-(methylcarbamoyl)phenyl]amino}-2-oxoethyl) imidazo[1,2-a] pyridine-5-carboxamide]
> 5.70 | O=C(Cc1cn2c(C(=O)NCC3(c4ccc(Cl)cc4)CCCCC3)cccc2n1)N[C@@H]1CCNC1 [Compound 961, N-{[1-(4-chlorophenyl)cyclohexyl]methyl}-2-{2-oxo-2-[(3R)-pyrrolidin-3-ylamino]ethyl} imidazo [1,2-a]pyridine-5-carboxamide]
> 5.70 | O=C(O)Cc1cn2c(C(=O)NCC3(c4ccc(C(F)(F)F)cc4)CCCCC3)cccc2n1 [Compound 963, {5-[({1-[4-(trifluoromethyl)phenyl]cyclohexyl}methyl)carbamoyl]imidazo[1,2-a]pyridin-2-yl}acetic acid]
> 5.70 | CC(C)CC(CNC(=O)c1cccc2nc(CC(=O)O)cn12)c1ccc(Cl)cc1 (stereo not drawn) [Compound 964, (5-{[2-(4-chlorophenyl)-4-methylpentyl]carbamoyl}imidazo[1,2-a]pyridin-2-yl) acetic acid]
> 5.70 | CC(C)(C)OC(=O)N1CC[C@@H](NC(=O)Cc2cn3c(C(=O)NCC4(c5ccc(Cl)cc5)CCCCC4)cccc3n2)C1 [Compound 968, tert-butyl (3R)-3-({[5-({[1-(4-chlorophenyl)cyclohexyl]methyl}carbamoyl)imidazo[1,2-a]pyridin-2-yl]acetyl}amino) pyrrolidine-1-carboxylate]
> 5.70 | CC(C)CC(CNC(=O)Cc1cn2c(C(=O)NC3CCCCC3)cccc2n1)c1ccc(Cl)cc1 (stereo not drawn) [Compound 975, 2-(2-{[2-(4-chlorophenyl)-4-methylpentyl]amino}-2-oxoethyl)-N-cyclohexylimidazo [1,2-a]pyridine-5-carboxamide]
> 5.70 | O=C(Cc1cn2c(C(=O)NCC3CCCCC3)cccc2n1)NCC1(c2ccc(Cl)cc2)CCCCC1 [Compound 978, 2-[2-({[1-(4-chlorophenyl)cyclohexyl]methyl}amino)-2-oxoethyl]-N-(cyclohexylmethyl) imidazo[1,2-a] pyridine-5-carboxamide]
> 5.70 | O=C(Cc1cn2c(C(=O)NCCc3ccccc3)cccc2n1)NCC1(c2ccc(Cl)cc2)CCCCC1 [Compound 979, 2-[2-({[1-(4-chlorophenyl)cyclohexyl]methyl}amino)-2-oxoethyl]-N-(2-phenylethyl) imidazo[1,2-a]pyridine-5-carboxamide]
> 5.70 | O=C(Cc1cn2c(C(=O)NC3CCCCC3)cccc2n1)NCC1(c2ccc(Cl)cc2)CCCCC1 [Compound 980, 2-[2-({[1-(4-chlorophenyl)cyclohexyl]methyl}amino)-2-oxoethyl]-N-cyclohexyl-imidazo[1,2-a]pyridine-5-carboxamide]

Further lines, the compound ahead of its results:

SMILES | pIC50
O=C(NCC12CC3CC(CC(C3)C1)C2)c1cccc2nc([C@H]3CC[C@@H](C(=O)O)CC3)cn12 [Compound 954, cis-4-{5-[(adamantan-1-ylmethyl)carbamoyl]imidazo[1,2-a]pyridin-2-yl} cyclohexane-carboxylic acid] | > 5.70
NC(=O)COc1cccc(NC(=O)Cc2cn3c(C(=O)NCC4CCCCCC4)cccc3n2)c1 [Compound 958, 2-(2-{[3-(2-amino-2-oxoethoxy)phenyl]amino}-2-oxoethyl)-N-(cycloheptylmethyl) imidazo[1,2-a] pyridine-5-carboxamide] | > 5.70
CC(C)CC(CNC(=O)c1cccc2nc(CC(=O)N[C@@H]3CCNC3)cn12)c1ccc(Cl)cc1 (stereo partly drawn) [Compound 960, N-[2-(4-chlorophenyl)-4-methylpentyl]-2-{2-oxo-2-[(3R)-pyrrolidin-3-ylamino]ethyl} imidazo[1,2-a] pyridine-5-carboxamide] | > 5.70
CC(C)CC(CNC(=O)c1cccc2nc(CC(=O)O)cn12)c1ccc(C(F)(F)F)cc1 (stereo not drawn) [Compound 965, [5-({4-methyl-2-[4-(trifluoromethyl)phenyl]pentyl}carbamoyl)imidazo[1,2-a]pyridin-2-yl] acetic acid] | > 5.70
CCCCCCCC(CNC(=O)c1cccc2nc(CC(=O)O)cn12)c1ccccc1 (stereo not drawn) [Compound 966, {5-[(2-phenylnonyl)carbamoyl]imidazo[1,2-a]pyridin-2-yl} acetic acid] | > 5.70
CC(C)CC(CNC(=O)c1cccc2nc(CC(=O)N[C@@H]3CCN(C(=O)OC(C)(C)C)C3)cn12)c1ccc(Cl)cc1 (stereo partly drawn) [Compound 967, tert-butyl 3-{[(5-{[2-(4-chlorophenyl)-4-methylpentyl]carbamoyl}imidazo[1,2-a]pyridin-2-yl)acetyl]amino} pyrrolidine-1-carboxylate] | > 5.70
CC(C)CC(CNC(=O)c1cccc2nc(C3CCC(C(=O)O)CC3)cn12)c1ccc(Cl)cc1 (stereo not drawn) [Compound 969, 4-(5-{[2-(4-chlorophenyl)-4-methylpentyl]carbamoyl}imidazo[1,2-a]pyridin-2-yl)cyclohexane-carboxylic acid] | > 5.70
O=C(Cc1cn2c(C(=O)NCCc3ccccc3)cccc2n1)NCC12CC3CC(CC(C3)C1)C2 [Compound 972, 2-{2-[(adamantan-1-ylmethyl)amino]-2-oxoethyl}-N-(2-phenylethyl)imidazo[1,2-a]pyridine-5-carboxamide] | > 5.70
O=C(Cc1cn2c(C(=O)NC3CCCCC3)cccc2n1)NCC12CC3CC(CC(C3)C1)C2 [Compound 973, 2-{2-[(adamantan-1-ylmethyl)amino]-2-oxoethyl}-N-cyclohexylimidazo[1,2-a]pyridine-5-carboxamide] | > 5.70
CC(C)CC(CNC(=O)c1cccc2nc(CCC(=O)O)cn12)c1ccc(C(F)(F)F)cc1 (stereo not drawn) [Compound 986, 3-[5-({4-methyl-2-[4-(trifluoromethyl)phenyl]pentyl}carbamoyl)imidazo[1,2-a]pyridin-2-yl] propanoic acid] | > 5.70
